Experiments:
MDA-MB-468 [1] = test: drug sensitivity score (DSS), CellTiter-Blue viability (DSS (AUC-based score)); higher = stronger viability inhibition; extreme values may be limits of the assay; conditions: incubation time: 72 h
Procedure, shortened: (§1)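 Breast cancer cell lines in 20 µl suspension were seeded into 384-well plates already holding compound in a 5- or 9-concentration series and incubated for 72 h. CellTiter-Blue reagent (2.5 µl per well) was then added for 2 h at 37 °C, and fluorescence was read at 560/590 nm. Values on each plate were normalised to 0.1 % DMSO and a positive kill control. The drug sensitivity score is the area under the fitted dose-response curve.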

MDA-MB-453 = test: as above; conditions: incubation time: 72 h
Procedure, shortened: as §1

MDA-MB-231 [2] = test: as above; conditions: incubation time: 72 h
Procedure, shortened: as §1

HCC1143 = test: as above; conditions: incubation time: 72 h
Procedure, shortened: as §1

HDQ-P1 = test: as above; conditions: incubation time: 72 h
Procedure, shortened: as §1

MFM-223 = test: as above; conditions: incubation time: 72 h
Procedure, shortened: as §1

BT-549 = test: as above; conditions: incubation time: 72 h
Procedure, shortened: as §1

CAL-51 = conditions: 72 h
Procedure, shortened: (§2)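 Breast cancer cell lines in 20 µl suspension were added to 384-well plates already holding compound at 5 concentrations, spaced in 10-fold steps across a compound-specific 10,000-fold range, and incubated for 72 h. CellTox Green fluorescence (485/520 nm) was read first to measure cell death, followed by CellTiter-Glo luminescence for viability after 10 min at room temperature. Each plate was normalised to 0.1 % DMSO and a positive kill control. EC50 values came from dose-response curve fits and were censored at the top concentration.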

CAL-120 = conditions: 72 h
Procedure, shortened: (§3)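 For viability, cells received 2.5 µl CellTiter-Blue for 2 h at 37 °C and fluorescence was read at 560/590 nm. Before this, breast cancer cell lines in 20 µl suspension had been incubated for 72 h on 384-well plates pre-loaded with compound dissolved in 5 µl medium. EC50 was obtained from a percent-inhibition dose-response fit censored at the highest concentration, after normalisation of each plate to vehicle and a positive kill control; rows with a zero drug sensitivity score were discarded.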

MDA-MB-231 [3] = conditions: 72 h
Procedure, shortened: as §3

HCC1937 = conditions: 72 h
Procedure, shortened: as §3

MDA-MB-468 [4] = conditions: 72 h
Procedure, shortened: as §2

BT-474 = conditions: 72 h
Procedure, shortened: as §2

SMILES	drug sensitivity score (MDA-MB-468 [1])	drug sensitivity score (MDA-MB-453)	drug sensitivity score (MDA-MB-231 [2])	drug sensitivity score (HCC1143)	drug sensitivity score (HDQ-P1)	drug sensitivity score (MFM-223)	drug sensitivity score (BT-549)	EC50, CellTiter-Glo (CAL-51) [nM]	EC50, CellTiter-Blue viability (CAL-120) [nM]	EC50, CellTiter-Blue viability (MDA-MB-231 [3]) [nM]	EC50, CellTiter-Blue viability (HCC1937) [nM]	EC50, CellTiter-Glo (MDA-MB-468 [4]) [nM]	EC50, CellTiter-Glo (BT-474) [nM]
C=C(c1ccc(C(=O)O)cc1)c1cc2c(cc1C)C(C)(C)CCC2(C)C [Bexarotene]	0	0	0	0	0	0	0						
CN(C)/N=N/c1[nH]cnc1C(N)=O [Dacarbazine]	0	0	0	0	0	0	0						
CCC1(c2ccc(N)cc2)CCC(=O)NC1=O (centres undefined) [Aminoglutethimide]	0	0	0	0	0	0	0						
CS(=O)(=O)c1ccc(C2=C(c3ccccc3)C(=O)OC2)cc1 [Rofecoxib]								> 10000					
CCN(CCCOc1ccc2c(Nc3cc(CC(=O)Nc4cccc(F)c4)[nH]n3)ncnc2c1)CCOP(=O)(O)O [Barasertib]	12.1	11.8	3.7	0	0	0	5.75		30	156	29.6		
CC(=O)Nc1ccc(C(=O)Nc2ccccc2N)cc1 [CI-994]	0	0	0	0	0	0	0						
C[C@@H](Oc1cc(-c2cnn(C3CCNCC3)c2)cnc1N)c1c(Cl)ccc(F)c1Cl [Crizotinib]	4.88	8.6	9.17	2.03	1.42	4.74	1.89		2640	1360	2280	> 1000	
Clc1ccc(Nc2nnc(Cc3ccncc3)c3ccccc23)cc1 [Vatalanib]	0	0	0	0	0	0	0						
O=C(CCCCCCC(=O)Nc1ccc([C@H]2O[C@@H](CSc3nc(-c4ccccc4)c(-c4ccccc4)o3)C[C@@H](c3ccc(CO)cc3)O2)cc1)NO [Tubacin]								4570				1730	3650
N[C@@H](CSC(c1ccccc1)(c1ccccc1)c1ccccc1)C(=O)O [S-trityl-L-cysteine]	12	0	14.7	1.21	0	0	2.15		2000	955	715		
CC(C)Cn1cnc2c(N)nc3ccccc3c21 [Imiquimod]	0	0.443	0	0	0	0	0						
N.N.[Cl][Pt][Cl] [Cisplatin]	0	0	0	0	0	0	0						
COc1cc2ncnc(Nc3ccc(F)c(Cl)c3)c2cc1NC(=O)/C=C/CN1CCCCC1 [Dacomitinib]												179	> 1000
Cn1c(CCCC(=O)O)nc2cc(N(CCCl)CCCl)ccc21 [Bendamustine]	0	0	0	0	0	0	0						
C#Cc1cccc(Nc2ncnc3cc(OCCOC)c(OCCOC)cc23)c1 [Erlotinib]	5.57	2.55	0	0	7.17	0	0	1130	2450		937		
Cc1ccc(-n2nc(C(C)(C)C)cc2NC(=O)Nc2ccc(OCCN3CCOCC3)c3ccccc23)cc1 [Doramapimod]	0	0	0	0	0	0	0					937	
Cc1ccc(C(=O)N(CCCN)[C@@H](c2oc3cc(Cl)ccc3c(=O)c2Cc2ccccc2)C(C)C)cc1	23.8	21.5	31.2	19.5	10.1	18.1	24.4	0.24	0.57	0.34	0.62		
O=P1(NCCCl)OCCCN1CCCl (centres undefined) [Ifosfamide]	0	0	0	0	0	0	0						> 10000

SMILES	drug sensitivity score (MDA-MB-468 [1])	drug sensitivity score (MDA-MB-453)	drug sensitivity score (MDA-MB-231 [2])	drug sensitivity score (HCC1143)	drug sensitivity score (HDQ-P1)	drug sensitivity score (MFM-223)	drug sensitivity score (BT-549)	EC50, CellTiter-Glo (CAL-51) [nM]	EC50, CellTiter-Blue viability (CAL-120) [nM]	EC50, CellTiter-Blue viability (MDA-MB-231 [3]) [nM]	EC50, CellTiter-Blue viability (HCC1937) [nM]	EC50, CellTiter-Glo (MDA-MB-468 [4]) [nM]	EC50, CellTiter-Glo (BT-474) [nM]
CO[C@H]1/C=C\C=C(/C)C(=O)NC2=CC(=O)C(NCCN(C)C)=C(C[C@@H](C)C[C@H](OC)[C@H](O)[C@@H](C)/C=C(\C)[C@@H]1OC(N)=O)C2=O [Alvespimycin]	10.4	22.6	12.2	11.5	13.8	18.7	20	48	27.4	38.9	7.56	32	48.8
COc1cc([C@@H]2c3cc4c(cc3[C@@H](O[C@@H]3O[C@@H]5CO[C@@H](C)O[C@H]5[C@H](O)[C@H]3O)[C@H]3COC(=O)[C@H]23)OCO4)cc(OC)c1O [Etoposide]	6.16	0	3.4	7.4	3.32	0	11	1090	2260	1020	3700	1730	2810
CN(N=O)C(=O)N[C@@H](C=O)[C@@H](O)[C@H](O)[C@H](O)CO [Streptozocin]	0	0	0	0	0	0	0				85.3		
C[C@]12CC[C@@H]3c4ccc(O)cc4C[C@@H](CCCCCCCCC[S+]([O-])CCCC(F)(F)C(F)(F)F)[C@H]3[C@@H]1CC[C@@H]2O (some centres undefined) [Fulvestrant]	0	0	0	0	0	1.05	0						
CC1(C)NC(=O)N(c2ccc([N+](=O)[O-])c(C(F)(F)F)c2)C1=O [Nilutamide]	0	0	0	0	0	0	0	724					
Cc1ccc(C(=O)Nc2ccc(CN3CCN(C)CC3)c(C(F)(F)F)c2)cc1C#Cc1cnc2cccnn12 [Ponatinib]	0	5.67	7.46	0	4.79	14.6	0.903	844	190			> 1000	244
NCC(=O)CCC(=O)O [Aminolevulinic acid]	0	0	0	0	0	0	0						
Cn1c(Nc2ccc(C(F)(F)F)cc2)nc2cc(Oc3ccnc(-c4ncc(C(F)(F)F)[nH]4)c3)ccc21 [RAF265]	0.566	0	4.5	7.68	9.94	5.45	5.55		77.8	141	99.1	142	692
O=C1CCC(N2C(=O)c3ccccc3C2=O)C(=O)N1 (centres undefined) [Thalidomide]	0	0	0	0	0	0	0						
Oc1nc(-c2ccc(C(F)(F)F)cc2)nc2c1CSCC2 [XAV-939]	0	0	2.73	7.23	0.887	0	0	12.6		2590			350
CCC1=C[C@@H]2CN(C1)Cc1c([nH]c3ccccc13)[C@@](C(=O)OC)(c1cc3c(cc1OC)N(C)[C@H]1[C@@](O)(C(=O)OC)[C@H](OC(C)=O)[C@]4(CC)C=CCN5CC[C@]31[C@@H]54)C2 [Vinorelbine]	18.2	26.1	22.8	16.8	16.5	18.4	25.6	118	22.5	67.6	26.3	26.7	76.3
CN[C@@H]1C[C@H]2O[C@@](C)([C@@H]1OC)n1c3ccccc3c3c4c(c5c6ccccc6n2c5c31)C(=O)N[C@H]4O [UCN-01]	22.4	18.2	24.5	22.2	19.9	14.7	22.4	77.5	24.5	59.2	58	93.2	43.4
N#CCNC(=O)c1ccc(-c2ccnc(Nc3ccc(N4CCOCC4)cc3)n2)cc1 [Momelotinib]												3480	5780
COc1cc2nccc(Oc3ccc(NC(=O)C4(C(=O)Nc5ccc(F)cc5)CC4)cc3)c2cc1OC [Cabozantinib]	0	1.25	0	0	0	0	0						
CNCc1ccc(-c2[nH]c3cc(F)cc4c3c2CCNC4=O)cc1 [Rucaparib]	0	2.23	2.45	0	0	1.28	0			683	945	1710	
NC(=O)Nc1cc(-c2cccc(F)c2)sc1C(=O)N[C@H]1CCCNC1 [AZD7762]								707				596	233
NC(=O)Nc1cc(-c2cccc(F)c2)sc1C(=O)N[C@H]1CCCNC1 [AZD 7762]	2.52	5.94	1.83	1.6	3.34	0	1.54		560	347	613		

Source: the supplement of paper PMC4862054
